Experiments:
[1] = system: HUVEC; assay: 5-FU cytotoxicity on HUVEC according to D-glucose or L-glucose concentration (MTS); format: cell-based, human
Protocol: An MTS cell proliferation assay was conducted to evaluate the cytotoxic effect of 5-FU on HUVEC according to D-glucose concentration under different pH conditions.
The cells were then incubated for an additional 24 hours in DMEM medium containing various concentrations of glucose.
To assess the cytotoxic effect of L-glucose on HUVEC, the experiment was conducted in the same manner as described in Example 2, Section 3.
To assess the cytotoxic effect of D-glucose or L-glucose on HUVEC, the experiment was conducted in the same manner as described in Example 2, Section 3.

[2] = system: HUVECs; assay: LDH release assay in HUVECs; format: cell-based, human; settings: 1 mM, 5 mM, and 10 mM 5-FU, time-dependent, P<0.05, FIG. 4
Protocol: It has been generally reported that an increase in the expression of thrombospondin-1 (TSP-1) and thrombospondin-2 (TSP-2) induces apoptosis in endothelial cells. To investigate whether the administration of 5-fluorouracil (5-FU) enhances apoptosis in endothelial cells, an LDH release assay was conducted in human umbilical vein endothelial cells (HUVECs). Cytotoxicity was assessed based on the amount of lactate dehydrogenase (LDH) released due to cell membrane damage. The released LDH was quantified using an LDH assay kit (EZ-LDH1000; DoGenBio, Seoul, Korea) according to the manufacturer's protocol.
HUVECs (5×10^4 cells/well) were seeded in a 96-well polystyrene plate and incubated at 37 °C for 24 hours. LDH substrate was added to each well, followed by an additional incubation at 37 °C for 10 minutes. The plate was centrifuged at 600 g for 5 minutes. A 10-μL aliquot of the supernatant was transferred from the culture plate wells to an analysis plate. Subsequently, 100 μL of LDH reaction mixture reagent was added to the supernatant in each well of the analysis plate. After a 30-minute reaction, absorbance was measured at 450 nm using a microplate reader (Model 680; Bio-Rad). The cytotoxicity of 5-FU on HUVECs was determined based on the amount of LDH released.

[3] = system: human gastric cancer cells; assay: Human gastric cancer cell xenograft in nude mice, alkaline 5-FU injected adjacent to tumor; format: in vivo, nude mice (Crj: BALB/c-nu/nu), human tumor cells; settings: 5 mg 5-FU pH 8.4, three times at one-week intervals, 4 weeks, P<0.05, FIG. 8
Protocol: The animals used in the experiment were six male nude mice (Crj: BALB/c-nu/nu mice, male) aged five weeks and weighing approximately 30 grams, purchased from Orient. The mice were subjected to a one-week acclimation period in the laboratory before use. Each nude mouse was subcutaneously xenografted with 5×10^6 human gastric cancer cells suspended in 100 μL of PBS on the dorsal subcutaneous layer. The tumor size was periodically measured, and when it reached a diameter of 1 cm, the drug administration experiment was conducted.
The experimental animals were divided into two groups. One group served as the control group, receiving only physiological saline, while the other group was administered 5 mg of 5-FU at pH 8.4. The drug was injected 0.2 cc adjacent to the tumor three times at one-week intervals. After one month, the major and minor axes of the tumors growing on the dorsal epidermis were measured.

[4] = system: thrombospondin-1 (TSP-1) in HUVEC; assay: TSP-1 protein expression in HUVEC by Western blot; format: cell-based, human; settings: prolonged exposure and higher drug concentrations of 5-FU, FIG. 3
Protocol: Thrombospondin (TSP) is a macromolecule with various functions, and among its isoforms, TSP-1 acts as an angiogenesis inhibitor. The following experiment was conducted to examine changes in TSP-1 expression in response to different concentrations of 5-FU.
Western blot analysis was conducted to confirm the expression of TSP-1 protein in the HUVEC (human umbilical vein endothelial cell) cell line.
HUVECs cultured in petri dishes were lysed using a buffer containing 50 mM Tris (pH 8.0), 150 mM NaCl, 1% Nonidet P-40, 0.5% sodium deoxycholate (SDC), 0.1% sodium dodecyl sulfate (SDS), and 1× protease inhibitor cocktail. The lysates were incubated on ice for 30 minutes, followed by centrifugation at 14,000 g for 10 minutes to collect the supernatant.
Protein quantification was performed using a bicinchoninic acid (BCA) protein assay kit (Pierce Chemical, Rockford, IL, USA). A total of 30 μg of protein was subjected to electrophoresis on a 10% SDS-polyacrylamide gel and subsequently transferred onto a nitrocellulose membrane. The membrane was blocked with blocking milk for 1 hour, then incubated with the same TSP-1 antibody used for immunostaining at room temperature for 1 hour. After three washes with Tris buffer containing 0.1% Tween 20 at 15-minute intervals, the membrane was incubated with a secondary antibody specific to the primary antibody at room temperature for 1 hour. […]

[5] = system: patients; settings: cited from earlier work
[6] = system: CD31; assay: CD31 immunohistochemical staining of gastric tumor tissue after local injection of 5-FU in nude mice; format: in vivo
Protocol: To observe changes in vascular tissue within gastric tumor masses after local injection of 5-FU, immunohistochemical staining for CD31 and VEGF was performed.
For the control group, gastric tumor tissue was implanted in the dorsal region of nude mice, and when the tumor reached a size of 1 cm×1 cm, it was excised and used. For the 5-FU injection group, 5 mg of 5-FU was injected at the base of the tumor when the implanted tumor reached a size of 1 cm×1 cm. […] The immunohistochemical staining method was as follows.
To reduce endogenous peroxidase activity present in blood cells within the tissue, the slides were treated at room temperature with 3% H2O2 in methanol for 15 minutes. […] The slides were washed twice with TBST (Tris-buffered saline with 0.1% Tween® 20 Detergent) for 3 minutes each, followed by incubation at room temperature for 15 minutes with Detection Kit Reagent 1 (HRP Polymer-anti-mouse/rabbit IgG). […] For counterstaining, Harris hematoxylin was applied.
For result analysis, the proportion of the area stained for CD31-positive blood vessels and VEGF-positive cancer cells relative to the total tissue area was calculated, and a comparison was made between the control group and the 5-FU locally injected group.

O=c1[nH]cc(F)c(=O)[nH]1 [5-FU, 5-fluorouracil]
cell viability upon addition of 5-FU ([1]; 5-FU added to L-glucose 5 mM and 25 mM, FIG. 14): further decreased cell viability
cell viability upon addition of 5-FU ([1]; 5-FU under different pH conditions added to D-glucose 5 mM and 25 mM, FIG. 13): further decrease in cell viability
amount of released LDH [2]: significantly increased
tumor size compared to before injection [3]: significantly reduced
TSP-1 expression levels [4]: increased expression levels
myelosuppression and gastrointestinal toxicity ([5]; due to phosphorylation in the gastrointestinal tract, damage to normal cells): frequent myelosuppression and gastrointestinal toxicity
adverse effects on intravenous administration ([5]; intravenous): associated with adverse effects such as thrombosis
incidence of severe and potentially life-threatening cardiotoxicity ([5]; reported cases): 1.5% to 18
distribution of necrotic tissue in tumor mass ([6]; 5 mg 5-FU, one week, compared to control group, FIG. 6): the distribution of necrotic tissue increased
Immuno-positive area (%) ([6]; CD31, proportion of total tissue area, 5 mg 5-FU, one week after injection, control group 0.87): 0.54%
stained area of CD31 and VEGF ([6]; CD31 and VEGF, compared to control group, Table 1): appeared smaller
vascular distribution within the tumor mass ([6]; compared to control group): reduced
stained area ratio of CD31 ([6]; compared to control group, FIG. 6): lower
